# Results from patent US20240408008A1, “AN IN-SITU GELLING ENEMA OF RIFAMYCIN FOR TREATING POUCHITIS AND DISTAL ULCERATIVE COLITIS” (COSMO TECHNOLOGIES LTD., priority 2021, published 2024).
# Tests used:
# Klebsiella oxytoca = assay: MIC, broth dilution; type: cell-based; settings: aerobic
# Escherichia coli = assay: MIC, broth dilution; type: cell-based; settings: aerobic
# Enteroccocus faecium = assay: MIC, broth dilution; type: cell-based; settings: aerobic
# Bifidobacterium breve = assay: MIC, broth dilution; type: cell-based; settings: DSM20091; Bifidobacterium breve (DSM 20091); anaerobic
# B. longum = assay: MIC, broth dilution; type: cell-based; settings: Bifidobacterium longum, anaerobic
# Ruminococcus gnavus = assay: MIC, broth dilution; type: cell-based; settings: Mediterraneibacter gnavus, DSM108212; Ruminococcus gnavus (DSM 108212); anaerobic
# Fusobacterium ulcerans = assay: MIC, broth dilution; type: cell-based; settings: DSM19847; Fusobacterium ulcerans (DSM 19847); anaerobic
# F. nucleatum = assay: MIC, broth dilution; type: cell-based; settings: Fusobacterium nucleatum, anaerobic
# Eikenella corrodens = assay: MIC, broth dilution; type: cell-based; settings: DSM8340; Eikenella corrodens (DSM 8340); anaerobic
# [1] = test system: Aggregatibacter actinomycetemcomitans; assay: MIC, broth dilution; type: cell-based; settings: DSM11123; Aggregatibacter actinomycetemcomitans (DSM 11123); anaerobic
# Porphiromonas gingivalis = assay: MIC, broth dilution; type: cell-based; settings: Porphiromonas gingivalis (DSM 20709); anaerobic
# Parvimonas micra = assay: MIC, broth dilution; type: cell-based; settings: DSM20468; Parvimonas micra (DSM 20468); anaerobic
# C. perfringens = assay: microbe, parasite or virus in culture; type: cell-based; settings: Clostridium perfringens, DSM11783
# Bacteroides fragilis = assay: MIC, broth dilution; type: cell-based; settings: anaerobic
# [2] = test system: selected bacteria involved in pouchitis pathogenesis; assay: MIC, broth dilution, whole panel; type: cell-based; settings: Gram-positive and Gram-negative, aerobic and anaerobic bacteria of Table 3
# Description: The Minimum Inhibitory Concentration (MIC) is defined as the lowest concentration expressed in mg/L (equivalent to μg/mL) of an antimicrobial ingredient or agent that is bacteriostatic (prevents the visible growth of bacteria). MICs are used to evaluate the antimicrobial efficacy of various compounds by measuring the effect of decreasing concentrations of antibiotic over a defined period in terms of inhibition of microbial population growth. MIC is generally regarded as the most basic laboratory measurement of the activity of an antimicrobial agent against an organism.
# Antimicrobial characteristics of Rifamycin sodium salt was assessed on a panel of selected bacteria involved in pouchitis pathogenesis and a standard broth dilution method was used to determine the MIC of Rifamycin. Briefly, two-fold dilutions of the tested compounds were dispensed in 96 round bottom well plates, each dilution was processed in the liquid culture medium suitable for the tested bacterial species. Bacteria inocula were prepared by a suspension of the microbial strain in sterile water saline and adjusted to a concentration of 0.5McFarland standard corresponding to 1.5×10^8 CFU/ml. A final bacterial concentration of 0.5-1×10^5 CFU/ml was distributed in each well. […] MIC was recorded when there was visible growth in the positive growth control column (bacterial inoculum without test substance). […]
# mTOR pathway = assay: Inhibition of mTOR and S6R phosphorylation in primary colonic epithelial cells, flow cytometry; type: cell-based, human
# Description: To evaluate Rifamycin activity on the mTOR pathway, primary colonic epithelial cells were serum starved for 24 hr and restimulated with serum for 48 hr to induce phosphorylation of mTOR and its downstream target protein […]. Serum stimulated cells were treated with Rifamycin SV, Rifaximin, the positive control Rapamycin, or the negative vehicle control DMSO. Cells were fixed, stained with antibodies against pmTOR and pS6R then analyzed by flow cytometry.
# [3] = Rifamycin concentration in colon homogenates and plasma, HPLC/MS-MS; type: in vivo; settings: rats, single enema of formulation 7639
# Description: Briefly, rats were anesthetized and treated by enema with formulation 7639 (2 mL/rat) into the rectum by using a catheter. All rats were sacrificed by CO2 inhalation at the predetermined time points. After a single enema administration of 7639 formulation, the concentration of Rifamycin in colon homogenates and plasma was determined by HPLC/MS-MS in samples collected at various time points.
compound,measurement,setting,value
CO[C@H]1/C=C/O[C@@]2(C)Oc3c(C)c(O)c4c(O)c(cc(O)c4c3C2=O)NC(=O)/C(C)=C\C=C\[C@H](C)[C@H](O)[C@@H](C)[C@@H](O)[C@@H](C)[C@H](OC(C)=O)[C@@H]1C [Rifamycin SV],MIC,"Klebsiella oxytoca; DSM6673, Klebsiella oxytoca (DSM 6673)",128 µg/mL
same,MIC,"Klebsiella oxytoca; Klebsiella oxytoca, ATCC700324, K. oxytoca (ATCC 700324)",200 µg/mL
same,MIC,"Klebsiella oxytoca; Klebsiella oxytoca, DSM4798, K. oxytoca (DSM 4798)",256 µg/mL
same,MIC,"Klebsiella oxytoca; Klebsiella oxytoca, DSM5175, K. oxytoca (DSM 5175)",128 µg/mL
same,MIC,"Escherichia coli; ATCC35218, Escherichia coli (ATCC 35218)",50 µg/mL
same,MIC,"Escherichia coli; Escherichia coli, ATCC11775, E. coli (ATCC 11775)",16 µg/mL
same,MIC,"Escherichia coli; Escherichia coli, ATCC25922, E. coli (ATCC 25922)",64 µg/mL
same,MIC,"Escherichia coli; Escherichia coli, ATCC51446, E. coli (ATCC 51446)",200 µg/mL
same,MIC,"Escherichia coli; Escherichia coli, DSM22312, E. coli (DSM 22312)",32 µg/mL
same,MIC,"Escherichia coli; Escherichia coli, DSM22313, E. coli (DSM 22313 )",64 µg/mL
same,MIC,"Escherichia coli; Escherichia coli, DSM22664, E. coli (DSM 22664 )",32 µg/mL
same,MIC,Enteroccocus faecium; Enteroccocus faecium (0808711),100 µg/mL
same,MIC,"Enteroccocus faecium; Enterococcus faecium, DSM17050, E. faecium (DSM 17050)",64 µg/mL
same,MIC,"Enteroccocus faecium; Enterococcus faecium, DSM25697, E. faecium (DSM 25697)",1 µg/mL
same,MIC,"Enteroccocus faecium; Enterococcus faecium, E. faecium (09006056)",100 µg/mL
same,MIC,"Enteroccocus faecium; Enterococcus faecium, E. faecium (DSM13590)",32 µg/mL
same,MIC,Bifidobacterium breve,0.5 µg/mL
same,MIC,"B. longum; DSM20088, B. longum (DSM 20088)",0.5 µg/mL
same,MIC,"B. longum; DSM20090, B. longum (DSM 20090)",0.25 µg/mL
same,MIC,Ruminococcus gnavus,< 0.03 µg/mL
same,MIC,Fusobacterium ulcerans,16 µg/mL
same,MIC,"F. nucleatum; DSM15643, F. nucleatum (DSM 15643)",< 0.03 µg/mL
same,MIC,"F. nucleatum; DSM19507, F. nucleatum (DSM 19507)",8 µg/mL
same,MIC,Eikenella corrodens,< 0.3 µg/mL
same,MIC,[1],< 0.3 µg/mL
same,MIC,Porphiromonas gingivalis,< 0.3 µg/mL
same,MIC,Parvimonas micra,< 0.3 µg/mL
same,MIC,C. perfringens,< 0.03 µg/mL
same,MIC,"Bacteroides fragilis; Bacteroides fragilis, DSM1396, B. fragilis (DSM 1396)",0.39 µg/mL
same,MIC,"Bacteroides fragilis; Bacteroides fragilis, DSM9668, B. fragilis (DSM 9668)",100 µg/mL
same,MIC,"Bacteroides fragilis; Bacteroides fragilis, DSM9669, B. fragilis (DSM 9669)",100 µg/mL
same,MIC,"Bacteroides fragilis; Bacteroides fragilis, DSM9670, B. fragilis (DSM 9670)",50 µg/mL
same,MIC,"Bacteroides fragilis; Bacteroides fragilis, DSM9671, B. fragilis (DSM 9671)",50 µg/mL
same,MIC,"Bacteroides fragilis; DSM2151, Bacteroides fragilis (DSM 2151)",0.78 µg/mL
same,antimicrobial activity in vitro,[2],powerful antimicrobial activity
same,IC50,"mTOR pathway; Homo sapiens, Epithelial cell, serum stimulated primary colonic epithelial cells, 48 hr, read-out: IC50, % cells positive for anti-pmTOR and anti-pS6R relative to DMSO",9.9 µM
same,"mTOR pathway potency, fold less potent than Rapamycin",mTOR pathway; ratio of IC50,20 fold
same,"mTOR pathway potency, fold more potent than Rifaximin",mTOR pathway; ratio of IC50,4 fold
same,concentration at 6 h,"[3]; rat, colon homogenate, other: enema into the rectum, 2 mL/rat, 6 hrs after administration",123 ng/g
same,concentration in blood samples (LLOQ of the method),"[3]; 30 min., 1 h, 2 h, 4 h and 6 h",< 1 ng/mL
